# Measurements taken from patent publication US7855200B2, “Method for treatment of gastric ulcers and ulcers induced by aspirin” (Council of Scientific and Industrial Research, priority 2006, dated 2010).
# Several values for one entry are separate records, joined by “and”; a condition that tells them apart may be missing. Equal values may be shown once.
# Key:
# Assay type in all cases: in vivo, albino rats
# [1] = test system: gastric ulcers induced by aspirin, ethanol, stress and pylorus ligation; assay: Antigastric ulcer screening by four different models (statements in words); details: summary statement
# From the text: The compounds taken under study for antigastric ulcer screening by four different models were selected using experimental albino rats: • 1. Aspirin induced gastric ulceration • 2. Pylorus ligated gastric ulceration • 3. Ethanol induced gastric ulceration • 4. Stress induced gastric ulceration
# The commercially available drug ranitidine (sigma), Omeprazole (sigma) and sucralfate (Merck) were used as reference standard in experimental models. The Tween-80 (SD fine chemicals) was used as vehicle for the administration of the drug, which is used as control.
# Pylorus ligated rats = assay: Pylorus ligated ulcers; details: 4 hours after pylorus ligation
# Summary of the method: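 Albino rats, fasted 48 h, dosed with test compound (25 mg/kg, or 50, 25, 15, 10 and 5 mg/kg) or ranitidine 50 mg/kg in 1% Tween 80 vehicle. Pylorus ligated under ether 1 h post-dose. Gastric contents collected 4 h later, centrifuged, and total acid titrated with 0.01N NaOH.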
# [2] = test system: gastric ulceration in cold restraint rats; assay: Cold restraint (stress) induced ulcers; design: Ulcer index Mean(SE): scale not given here; details: rats, 4° C. for 2 hours
# Summary of the method: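 Albino rats, fasted 48 h with free water, dosed orally with compound at 25 mg/kg or at 50, 25, 15, 10 and 5 mg/kg in 1% Tween 80 vehicle. Water removed 1 h before restraint at 4° C for 2 h. Sacrificed 2 h after stress; stomachs opened along greater curvature and scored as mean ulcer index.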
compound,measurement,setting,value
"COC(=O)C1OC(Oc2cc3oc(-c4ccccc4)cc(=O)c3cc2OC)C(O)C(O)C1O (stereo not shown) [OA-5, 3,4,5-trihydroxy-6-(6-methoxy-4-oxo-2-phenyl-4-H-chromen-7-yoloxy) tetrahydro-pyran-2-carboxylicacid methyl ester]",antiulcer activity (in words),[1]; listed as Oroxyloside methyl ester,excellent potent molecule
same,antiulcer activity (in words),[1]; listed as oroxyloside methyl ester,potent activity
same,Acidity Total mEg,Pylorus ligated rats; 5 mg/kg,45.50 (±1.25) mEg
same,Gastric content,Pylorus ligated rats; 5 mg/kg,2.06 (±0.28)
same,Inhibition %,Pylorus ligated rats; 5 mg/kg,46.80%
same,Ulcer index Mean(SE),Pylorus ligated rats; 5 mg/kg,26.66 (±5.48)
same,pH,Pylorus ligated rats; 5 mg/kg,3.25 (±0.17)
same,Acidity Total mEg,Pylorus ligated rats; 10 mg/kg,42.90 (±2.37) mEg
same,Gastric content,Pylorus ligated rats; 10 mg/kg,3.50 (±0.62)
same,Inhibition %,Pylorus ligated rats; 10 mg/kg,59.78%
same,Ulcer index Mean(SE),Pylorus ligated rats; 10 mg/kg,21.66 (±3.04)
same,pH,Pylorus ligated rats; 10 mg/kg,3.58 (±0.24)
same,Acidity Total mEg,Pylorus ligated rats; 15 mg/kg,30.25 (±0.73) mEg
same,Gastric content,Pylorus ligated rats; 15 mg/kg,3.62 (±0.61)
same,Inhibition %,Pylorus ligated rats; 15 mg/kg,70.07%
same,Ulcer index Mean(SE),Pylorus ligated rats; 15 mg/kg,15.00 (±3.33)
same,pH,Pylorus ligated rats; 15 mg/kg,4.35 (±0.10)
same,Acidity Total mEg,Pylorus ligated rats; 25 mg/kg,30.18 (±0.50) m Eg
same,Gastric content,Pylorus ligated rats; 25 mg/kg,2.10 (±0.34)
same,Inhibition %,Pylorus ligated rats; 25 mg/kg,75.07%
same,Ulcer index Mean(SE),Pylorus ligated rats; 25 mg/kg,12.49 (±3.74)
same,pH,Pylorus ligated rats; 25 mg/kg,5.62 (±0.19)
same,Acidity Total mEg,Pylorus ligated rats; 50 mg/kg,32.66 (±0.62) m Eg
same,Gastric content,Pylorus ligated rats; 50 mg/kg,2.50 (±0.19)
same,Inhibition %,Pylorus ligated rats; 50 mg/kg,79.85%
same,Ulcer index Mean(SE),Pylorus ligated rats; 50 mg/kg,10.10 (±2.04)
same,pH,Pylorus ligated rats; 50 mg/kg,4.62 (±0.10)
same,Inhibition %,[2]; 5 mg/kg per orally,31.55%
same,Ulcer index Mean(SE),[2]; 5 mg/kg per orally,27.5
same,Inhibition %,[2]; 10 mg/kg per orally,41.92%
same,Ulcer index Mean(SE),[2]; 10 mg/kg per orally,23.33
same,Inhibition %,[2]; 15 mg/kg per orally,50.14%
same,Ulcer index Mean(SE),[2]; 15 mg/kg per orally,19.99
same,Inhibition %,[2]; 25 mg/kg per orally,75.45%
same,Ulcer index Mean(SE),"[2]; 25 mg/kg per orally, 25 mg/kg",9.997 and 9.99
same,Inhibition %,[2]; 50 mg/kg per orally,78.22%
same,Ulcer index Mean(SE),[2]; 50 mg/kg per orally,8.75
